The structures appear in SMILES notation. Structures can show the parent of a compound that is named as a salt. Where two headings read alike, the source gives them in different places.

Here are results for 9 compounds from patent US10004701B2, “Methods and compositions for treating infection” (UNIVERSITY OF ROCHESTER, priority 2012, dated 2018).

Holding throughout (assay): AK assay 384-well format, Prestwick library screening
One test has as its system K. pneumoniae. The class given is cell-based, Klebsiella pneumoniae. The following applies: Klebsiella pneumoniae, 3 h, 50 μM final drug concentration.
In test [1] the test system is S. aureus strain USA300-0114. The format is cell-based, Staphylococcus aureus. The following applies: Staphylococcus aureus, USA300, 3 h, 50 μM final drug concentration.
In another test the test system is E. coli. The format is cell-based, Escherichia coli. As to conditions: Escherichia coli, 3 h, 50 μM final drug concentration.
A further test concerns P. aeruginosa. The format is cell-based, Pseudomonas aeruginosa. The following applies: Pseudomonas aeruginosa, 3 h, 50 μM final drug concentration.
The next test concerns E. faecium. The format is cell-based, Enterococcus faecium. The following applies: Enterococcus faecium, 3 h, 50 μM final drug concentration.
The subject of the next test is E. cloacae. The class given is cell-based, Enterobacter cloacae. As to conditions: Enterobacter cloacae, 3 h, 50 μM final drug concentration.
Test [2] concerns A. baumannii strain 98-37-09. The class given is cell-based, Acinetobacter baumannii. As to conditions: Acinetobacter baumannii, 983709, 3 h, 50 μM final drug concentration.
Setting [3] is: planktonic K. pneumoniae, cutoff for positive-scoring molecules 3-fold increase, read-out: AK-based Prestwick Library Screening Results, K. pneumoniae (increase in extracellular AK activity).
Setting [4] is: planktonic S. aureus, cutoff for positive-scoring molecules 3-fold increase, read-out: AK-based Prestwick Library Screening Results, S. aureus (increase in extracellular AK activity).
[5] abbreviates: planktonic E. coli, cutoff for positive-scoring molecules 3-fold increase, read-out: AK-based Prestwick Library Screening Results, E. coli (increase in extracellular AK activity).
The mark [6] stands for this setting: planktonic P. aeruginosa, cutoff for positive-scoring molecules 3-fold increase, read-out: AK-based Prestwick Library Screening Results, P. aeruginosa (increase in extracellular AK activity).
[7] abbreviates: planktonic E. faecium, cutoff for positive-scoring molecules 3-fold increase, read-out: AK-based Prestwick Library Screening Results, E. faecium (increase in extracellular AK activity).
Where [8] appears, read: planktonic E. cloacae, cutoff for positive-scoring molecules 3-fold increase, read-out: AK-based Prestwick Library Screening Results, E. cloacae (increase in extracellular AK activity).
[9] abbreviates: planktonic A. baumannii, cutoff for positive-scoring molecules 3-fold increase, read-out: AK-based Prestwick Library Screening Results, A. baumannii (increase in extracellular AK activity).
Setting [10] is: planktonic K. pneumoniae, 384-well, cutoff for positive-scoring molecules 3-fold increase, read-out: AK-based Prestwick Library Screening Results: K. pneumoniae (increase in extracellular AK activity).
Where [11] appears, read: planktonic S. aureus, 384-well, cutoff for positive-scoring molecules 3-fold increase, read-out: AK-based Prestwick Library Screening Results: S. aureus (increase in extracellular AK activity).
The mark [12] stands for this setting: planktonic E. coli, 384-well, cutoff for positive-scoring molecules 3-fold increase, read-out: AK-based Prestwick Library Screening Results: E. coli (increase in extracellular AK activity).
Where [13] appears, read: planktonic P. aeruginosa, 384-well, cutoff for positive-scoring molecules 3-fold increase, read-out: AK-based Prestwick Library Screening Results: P. aeruginosa (increase in extracellular AK activity).
Setting [14] is: planktonic E. faecium, 384-well, cutoff for positive-scoring molecules 3-fold increase, read-out: AK-based Prestwick Library Screening Results: E. faecium (increase in extracellular AK activity).
Where [15] appears, read: planktonic E. cloacae, 384-well, cutoff for positive-scoring molecules 3-fold increase, read-out: AK-based Prestwick Library Screening Results: E. cloacae (increase in extracellular AK activity).
The mark [16] stands for this setting: planktonic A. baumannii, 384-well, cutoff for positive-scoring molecules 3-fold increase, read-out: AK-based Prestwick Library Screening Results: A. baumannii (increase in extracellular AK activity).
Setting [17] is: planktonic, cutoff for positive-scoring molecules 3-fold increase, read-out: AK-based Prestwick Library Screening Results, K. pneumoniae (fold increase in extracellular AK activity).
Setting [18] is: planktonic, cutoff for positive-scoring molecules 3-fold increase, read-out: AK-based Prestwick Library Screening Results, S. aureus (fold increase in extracellular AK activity).
Setting [19] is: planktonic, cutoff for positive-scoring molecules 3-fold increase, read-out: AK-based Prestwick Library Screening Results, E. coli (fold increase in extracellular AK activity).
[20] abbreviates: planktonic, cutoff for positive-scoring molecules 3-fold increase, read-out: AK-based Prestwick Library Screening Results, P. aeruginosa (fold increase in extracellular AK activity).
[21] abbreviates: planktonic, cutoff for positive-scoring molecules 3-fold increase, read-out: AK-based Prestwick Library Screening Results, E. faecium (fold increase in extracellular AK activity).
Setting [22] is: planktonic, cutoff for positive-scoring molecules 3-fold increase, read-out: AK-based Prestwick Library Screening Results, E. cloacae (fold increase in extracellular AK activity).
[23] abbreviates: planktonic, cutoff for positive-scoring molecules 3-fold increase, read-out: AK-based Prestwick Library Screening Results, A. baumannii (fold increase in extracellular AK activity).

Regarding `NC(=O)c1cnccn1` [Pyrazinamide], the fold induction at 50 µM in the test with K. pneumoniae (setting [3]) amounted to 0.8; in test [1] (setting [4]) it was 0.7; in the test on E. coli (setting [5]), 0.9; in the test with P. aeruginosa (setting [6]), 0.8; in the test on E. faecium (setting [7]), 0.8; in the test on E. cloacae (setting [8]) it was 1.2. Further, in test [2] (setting [9]), the fold induction at 50 µM was 0.9.

In the case of `O=C(NCCN1CCOCC1)c1ccc(Cl)cc1` [Moclobemide], the fold induction at 50 µM turned out to be 0.6 with K. pneumoniae (setting [3]); 0.6 in test [1] (setting [4]); 0.9 in the test on E. coli (setting [5]); 0.8 with P. aeruginosa (setting [6]); 0.9 in the test with E. faecium (setting [7]); 1.2 in the test on E. cloacae (setting [8]). For the same compound, the fold induction at 50 µM in test [2] (setting [9]) was 0.7.

Turning to `Cc1ccc(C)c(OCCCC(C)(C)C(=O)O)c1` [Gemfibrozil], the fold induction at 50 µM with K. pneumoniae (setting [10]) is 0.9; in test [1] (setting [11]), 0.9; in the test with E. coli (setting [12]) it was 1.3; in the test on P. aeruginosa (setting [13]) it was 1.2; in the test on E. faecium (setting [14]), 1; in the test with E. cloacae (setting [15]) it was 1.5. Also, the fold induction at 50 µM in test [2] (setting [16]) was found to be 1.3.

With `Cc1ccc(N(CC2=NCCN2)c2cccc(O)c2)cc1` [Phentolamine hydrochloride], the fold induction at 50 µM in the test with K. pneumoniae (setting [10]) is 1.1; in test [1] (setting [11]), 1.1; in the test on E. coli (setting [12]), 1.4; in the test with P. aeruginosa (setting [13]) it was 1.2; with E. faecium (setting [14]), 1; in the test with E. cloacae (setting [15]), 1.2. In addition, the fold induction at 50 µM in test [2] (setting [16]) came to 1.4.

Regarding `COc1c2ccoc2nc2c(OC)c(OCC(O)C(C)(C)O)ccc12` (stereo not drawn) [Evoxine], the fold induction at 50 µM in the test on K. pneumoniae (setting [17]) is 0.7; in test [1] (setting [18]), 0.6; with E. coli (setting [19]) it was 0.7; with P. aeruginosa (setting [20]) it was 0.8; with E. faecium (setting [21]) it was 0.8; with E. cloacae (setting [22]), 1.1. Also, the fold induction at 50 µM in test [2] (setting [23]) is 0.7.

Take `Nc1ccc(S(=O)(=O)Nc2cnc3ccccc3n2)cc1` [Sulfaquinoxaline sodium salt]: the fold induction at 50 µM with K. pneumoniae (setting [17]) is 0.6; in test [1] (setting [18]) it was 0.7; in the test with E. coli (setting [19]), 0.6; in the test with P. aeruginosa (setting [20]) it was 0.6; in the test on E. faecium (setting [21]), 0.9; in the test with E. cloacae (setting [22]) it was 0.8. The fold induction at 50 µM in test [2] (setting [23]) was 1.

As to `C[C@H](CS)C(=O)N1CCC[C@H]1C(=O)O` [Captopril], the fold induction at 50 µM in the test on K. pneumoniae (384-well format, cutoff for positive-scoring molecules 3-fold increase, read-out: AK-based Prestwick Library Screening Results, K. pneumoniae (increase in extracellular AK activity)) stood at 0.6; in test [1] (384-well format, cutoff for positive-scoring molecules 3-fold increase, read-out: AK-based Prestwick Library Screening Results, S. aureus (increase in extracellular AK activity)), 0.7; in the test on E. coli (384-well format, cutoff for positive-scoring molecules 3-fold increase, read-out: AK-based Prestwick Library Screening Results, E. coli (increase in extracellular AK activity)) it was 0.7; with P. aeruginosa (384-well format, cutoff for positive-scoring molecules 3-fold increase, read-out: AK-based Prestwick Library Screening Results, P. aeruginosa (increase in extracellular AK activity)) it was 0.6; with E. faecium (384-well format, cutoff for positive-scoring molecules 3-fold increase, read-out: AK-based Prestwick Library Screening Results, E. faecium (increase in extracellular AK activity)) it was 1; in the test with E. cloacae (384-well format, cutoff for positive-scoring molecules 3-fold increase, read-out: AK-based Prestwick Library Screening Results, E. cloacae (increase in extracellular AK activity)), 0.8. The fold induction at 50 µM in test [2] (384-well format, cutoff for positive-scoring molecules 3-fold increase, read-out: AK-based Prestwick Library Screening Results, A. baumannii (increase in extracellular AK activity)) amounted to 0.8.

For the compound `C[C@H](O)C(=O)Nc1c(I)c(C(=O)NC(CO)CO)c(I)c(C(=O)NC(CO)CO)c1I` [Iopamidol], the fold induction at 50 µM turned out to be 1.2 in the test on K. pneumoniae (cutoff for positive-scoring molecules 3-fold increase, read-out: AK-based Prestwick Library Screening Results, K. pneumoniae (fold increase in extracellular AK activity)); 1.3 in test [1] (cutoff for positive-scoring molecules 3-fold increase, read-out: AK-based Prestwick Library Screening Results, S. aureus (fold increase in extracellular AK activity)); 1.2 in the test on E. coli (cutoff for positive-scoring molecules 3-fold increase, read-out: AK-based Prestwick Library Screening Results, E. coli (fold increase in extracellular AK activity)); 1.2 with P. aeruginosa (cutoff for positive-scoring molecules 3-fold increase, read-out: AK-based Prestwick Library Screening Results, P. aeruginosa (fold increase in extracellular AK activity)); 1 in the test on E. faecium (cutoff for positive-scoring molecules 3-fold increase, read-out: AK-based Prestwick Library Screening Results, E. faecium (fold increase in extracellular AK activity)); 1.4 in the test on E. cloacae (cutoff for positive-scoring molecules 3-fold increase, read-out: AK-based Prestwick Library Screening Results, E. cloacae (fold increase in extracellular AK activity)). Moreover, the fold induction at 50 µM in test [2] (cutoff for positive-scoring molecules 3-fold increase, read-out: AK-based Prestwick Library Screening Results, A. baumannii (fold increase in extracellular AK activity)) stood at 1.2.

As to `CCNCC(O)c1cccc(O)c1` (stereo not drawn) [Etilefrine hydrochloride], the fold induction at 50 µM in the test on K. pneumoniae (planktonic K. pneumoniae, positive cutoff 3-fold increase, read-out: AK-based Prestwick library screening result, K. pneumoniae (fold increase in extracellular AK activity)) worked out at 0.8; in test [1] (planktonic S. aureus, positive cutoff 3-fold increase, read-out: AK-based Prestwick library screening result, S. aureus (fold increase in extracellular AK activity)) it was 1.1; in the test with E. coli (planktonic E. coli, positive cutoff 3-fold increase, read-out: AK-based Prestwick library screening result, E. coli (fold increase in extracellular AK activity)) it was 1; with P. aeruginosa (planktonic P. aeruginosa, positive cutoff 3-fold increase, read-out: AK-based Prestwick library screening result, P. aeruginosa (fold increase in extracellular AK activity)) it was 1.1; in the test on E. faecium (planktonic E. faecium, positive cutoff 3-fold increase, read-out: AK-based Prestwick library screening result, E. faecium (fold increase in extracellular AK activity)) it was 1; with E. cloacae (planktonic E. cloacae, positive cutoff 3-fold increase, read-out: AK-based Prestwick library screening result, E. cloacae (fold increase in extracellular AK activity)), 1.5. The fold induction at 50 µM in test [2] (planktonic A. baumannii, positive cutoff 3-fold increase, read-out: AK-based Prestwick library screening result, A. baumannii (fold increase in extracellular AK activity)) was determined as 1.4.
